# Test results: patent US11878013B2, “Isoquinoline derivative, preparing method thereof, and pharmaceutical composition for preventing or treating autophagy related diseases containing the same as an active ingredient” (Korea Research Institute of Chemical Technology, priority 2021, dated 2024)
# Tested on: zebrafish
# Assay: Whitening effect: melanin synthesis / melanocyte formation in zebrafish
# Assay type: in vivo
# From the text: When observing the regeneration of melanin pigment, after inhibiting the formation of melanin pigment, it can be investigated by limiting it to the melanocyte generation pathway, and it is easy to observe the melanin synthesized in the initial stage of development. Therefore, zebrafish is more useful for the study of melanin pigment changes compared to other animal models (Logan D W, Burn S F, Jackson I J. (2006) Regulation of pigmentation in zebrafish melanophores. Pigment Cell Res. 2006 June; 19(3):206-13.).
# Particularly, zebrafish fertilized eggs 10 hours after fertilization were placed in a 24-well plate (10 eggs/well), and 1 ml of egg water was added to each well of the plate. The compound of Example 1 was added to each well at the concentrations of 0.1 μM and 1 μM, so that the final volume of each well was 2 ml. Then, each 24-well plate was wrapped in foil to block light, and then incubated in a 28° C. incubator for 22 hours. At 32 hours after fertilization, in order to photograph the formation of black melanocytes, the chorion of the developing embryo was peeled off using a forcep (Fine Science Tools). After anesthetizing the developing embryo with Tricaine (4 g/L), the embryo was photographed on 3% methyl cellulose. As the equipment for photographing the developing embryo, a LEICA MZ10F fluorescence microscope, a LEICA DFC425 camera, and Leica Application Suite software (v4.5) were used. In all the experimental procedures, egg water sterilized after dissolving 60 mg/L of sea salt (Sigma-Aldrich, S9883) in tertiary distilled water was used as a solution for culturing the developing embryo. As a control group, a solvent control group (0.4% DMSO) and phenylthiourea (200 μM PTU), known as a tyrosinase inhibitor, were used (FIG. 6A).
# In the same manner, experiments were performed with the compound of Comparative Example 1 at the concentrations of 0.5 μM, 1 μM, and 5 μM, and the results are shown in FIG. 6B.
# On the other hand, in order to confirm the ability of the compound of the present invention to inhibit the melanin synthesis of the already generated melanocytes, the following experiment was performed with juvenile fish 60 hours after fertilization. Particularly, juvenile fish 60 hours after fertilization were placed in a 24-well plate (10/well), and 1 ml of egg water was added to each well of the plate. The compound of Example 1 was added to each well at the concentrations of 10 μM and 20 μM, so that the final volume of each well was 2 ml. Then, each 24-well plate was wrapped in foil to block light, and then incubated in a 28° C. incubator for 12 hours. In order to photograph the formation of black melanocytes, the developing embryo was anesthetized with Tricaine (4 g/L), and then the embryo was photographed on 3% methyl cellulose. […]
smiles,measurement,setting,value
"[O-][S+](c1ccc(F)cc1)c1nccc2ccccc12 (stereo not drawn) [Example 1, 1-((4-Fluorophenyl)Sulfinyl)Isoquinoline]",synthesis of melanin,"1 μM, treated 10 hours after fertilization, read at 32 hours after fertilization, PTU 200 μM as control",level similar to that in the group treated with PTU
same,melanin synthesis inhibitory effect,"20 μM, treated 60 hours after fertilization, read at 72 hours after fertilization, compared to PTU 0.2 mM",superior melanin synthesis inhibitory effect compared to PTU
same,superior activity compared to Comparative Example 1 (melanin synthesis inhibition),"32 hours after fertilization, 1 μM vs 5 μM for PTU-like effect",≥ 5 fold
